Assay results: patent publication US10556865B2, “Synergistic herbicidal composition containing certain pyridine or pyrimidine carboxylic acids and certain cereal and rice herbicides” (Dow AgroSciences, LLC, priority 2007, dated 2020)
Read-outs that look alike come from different tables or passages of the source.

Assays:
Assay in all cases: Postemergence herbicidal activity of mixtures in cereal crops (greenhouse, visual injury)
Format in all cases: in vivo
[1] = test system: chickweed (Stellaria media L; STEME)
Procedure, shortened: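 Greenhouse-grown plants at 2nd–3rd true leaf stage (14 h photoperiod, ~18/17 °C) sprayed postemergence at 187 L/ha with compound A or B (methyl ester or TEA/K salt) and a second cereal herbicide, alone and in two- or three-way mixtures. Visual injury (0–100%) scored versus solvent-blank controls after 20–22 days; expected mixture activity calculated by Colby's equation.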

[2] = test system: annual ryegrass (Lolium multiflorum L; LOLMG); details: Table 13
Procedure, shortened: (§1)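 Plants at second-third true leaf stage sprayed postemergence at 187 L/ha with compound and second cereal herbicide alone and combined; solvent blank controls. Visual injury scored 0-100% versus controls after 20-22 days; expected mixture effects by Colby's equation.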

[3] = test system: littleseed Canarygrass (Phalaris minor L; PHAMI); details: for PHAMI: Table 13
Procedure, shortened: as §1

[4] = test system: wild oats (Avena fatua L; AVEFA)
Procedure, shortened: as §1

[5] = test system: windgrass (Apera spica-venti L; APESV); details: Apera spica-venti, post-emergence, read-out: APESV Ob
Procedure, shortened: as §1

In the case of COc1c(Cl)ccc(-c2cc(N)c(Cl)c(C(=O)O)n2)c1F [Compound A TEA, 4-amino-3-chloro-6-(4-chloro-2-fluoro-3-methoxyphenyl)pyridine-2-carboxylic acid], the “STEME Ob” value ([1]; 70 g/ha alone) is reported as 93%, the pest or weed control at 8.75 g/ha ([1]; Stellaria media, post-emergence, 8.75 g/ha alone, read-out: STEME Ob) is reported as 80% and the pest or weed control at 8.75 g/ha ([1]; Stellaria media, post-emergence, 8.75 g/ha, read-out: STEME Ob) is reported as 80%. The pest or weed control at 17.5 g/ha ([1]; Stellaria media, post-emergence, 17.5 g/ha alone, read-out: STEME Ob) was 85%, the pest or weed control at 17.5 g/ha ([1]; Stellaria media, post-emergence, 17.5 g/ha, read-out: STEME Ob) was 85% and the pest or weed control at 35 g/ha ([1]; Stellaria media, post-emergence, 35 g/ha alone, read-out: STEME Ob) was 88%. The pest or weed control at 70 g/ha ([1]; Stellaria media, post-emergence, 70 g/ha alone, read-out: STEME Ob) was 93%, the pest or weed control at 140 g/ha ([1]; Stellaria media, post-emergence, 140 g/ha, read-out: STEME Ob) was 65% and the “LOLMG Ob” value ([2]; 35 g/ha) was 0%. The “LOLMG Ob” value ([2]; 70 g/ha) was 0%, the “LOLMG Ob” value ([2]; 140 g/ha) was 0% and the PHAMI ([3]; 35 g/ha) was 0%. The “PHAMI Ob” value ([3]; 35 g/ha, Table 16) was 0%, the “PHAMI Ob” value ([3]; 35 g/ha, Table 18) was 0% and the PHAMI ([3]; 70 g/ha) was 0%. For the same molecule, the “PHAMI Ob” value ([3]; 70 g/ha, Table 16) was 0%, the “PHAMI Ob” value ([3]; 70 g/ha, Table 18) was 0% and the PHAMI ([3]; 140 g/ha) was 0%. For the same molecule, the “PHAMI Ob” value ([3]; 140 g/ha, Table 16) was 0%, the “PHAMI Ob” value ([3]; 140 g/ha, Table 18) was 0% and the “AVEFA Ob” value ([4]; 35 g/ha, Table 14) was 0%. For the same molecule, the “AVEFA Ob” value ([4]; 35 g/ha, Table 17) was 0%, the “AVEFA Ob” value ([4]; 35 g/ha, Table 18) was 0% and the “AVEFA Ob” value ([4]; 70 g/ha, Table 14) was 0%. For the same molecule, the “AVEFA Ob” value ([4]; 70 g/ha, Table 17) was 3%, the “AVEFA Ob” value ([4]; 70 g/ha, Table 18) was 0% and the “AVEFA Ob” value ([4]; 140 g/ha, Table 14) was 0%. The “AVEFA Ob” value ([4]; 140 g/ha, Table 17) was 8%, the “AVEFA Ob” value ([4]; 140 g/ha, Table 18) was 0% and the pest or weed control at 35 g/ha ([5]; Table 14) was 8%. The pest or weed control at 35 g/ha ([5]; Table 15) was 3%, the pest or weed control at 35 g/ha ([5]; Table 16) was 3% and the pest or weed control at 35 g/ha ([5]; Table 17) was 3%. It also gave a pest or weed control at 35 g/ha ([5]; Table 18) of 8%, a pest or weed control at 70 g/ha ([5]; Table 14) of 13% and a pest or weed control at 70 g/ha ([5]; Table 15) of 0%. The pest or weed control at 70 g/ha ([5]; Table 16) was 0%, the pest or weed control at 70 g/ha ([5]; Table 17) was 0% and the pest or weed control at 70 g/ha ([5]; Table 18) was 13%. It also gave a pest or weed control at 140 g/ha ([5]; Table 14) of 15%, a pest or weed control at 140 g/ha ([5]; Table 15) of 4% and a pest or weed control at 140 g/ha ([5]; Table 16) of 4%. It also gave a pest or weed control at 140 g/ha ([5]; Table 17) of 4% and a pest or weed control at 140 g/ha ([5]; Table 18) of 15%.
